# In patent US7605149B1, “Modulation of the phospholipase A2 pathway as a therapeutic” (University of South Florida, priority 1998, dated 2009):
# Read-outs that look alike come from different tables or passages of the source.
# Key:
# [1] = system: rat aortae (aortic rings); assay: Vessel bath vasoactivity assay: ET-1-induced vasoconstriction of rat aortic rings and its enhancement by Aβ or sPLA2; format: cell-based; conditions: for effect on sPLA2-induced vasoconstriction: inactivation of sPLA2
# Protocol: Vessel experiments. Freshly dissected aortae were prepared from normal male Sprague-Dawley rats (7-8 months old, purchased from Zivic Miller, Zelienople, Pa.) as previously described by Paris et al, Exp Neurol 1998 and Exp Neurol 1999. Rat aortae were segmented into rings and suspended in Kreb's buffer on hooks connected to a tensiometer linked to a MacLab system. Aortic rings were equilibrated for 2 hours, in 7 mL tissue baths containing Kreb's buffer oxygenated with 95% O2: 5% CO2, and thermoregulated to 37° C. A baseline tension of 2 g was applied to each ring, and the first set of aortic rings was pretreated with the various compounds named above either alone or in combination with Aβ peptides. After 5 minutes of incubation in the presence or absence of Aβ, this first set of vessels was subjected to a dose range of ET-1 (from 1 nM to 5 nM). A second set of vessels was treated with 1 μM of Aβ peptides prior to the addition of ET-1. A third set (control) received only ET-1 treatment. Each ET-1 dose was added only after the constriction response to the previous dose had reached a plateau. In all cases the means ±1 standard error (SE) of the percentage vasoconstriction increase over baseline were determined for each dose of ET-1 used.
# (§1) Statistical analysis. Analysis of variance (ANOVA) was used to analyze the data, with post-hoc comparisons of means carried out where appropriate by Sheffe's or Bonferonni's methods. As previously described (Paris et al., Neurosci Lett, 1998), a significant interactive term by ANOVA was taken as evidence that both drug x and Aβ are modulating a common signal transduction pathway. […] Levene's test for equality of variance followed by t-test for independent samples was used for single mean comparisons. Alpha levels were set at 0.05 for all analyses. Analyses were performed using SPSS for Windows release 9.5.
# [2] = system: rat aortae (aortic rings); conditions: cited from earlier work
# [3] = system: intact rat aortae (aortic rings); assay: [3H]AA release in intact rat aortae; format: cell-based
# Protocol: Measurement of [^3H]AA release in intact rat aortae. Aortic rings (1.5 mm long) were placed in 1 mL of physiological saline solution (PSS, containing 130 mM NaCl, 5 mM KCl, 1.5 mM CaCl2, 1.2 mM MgCl2, 10 mM HEPES, and 10 mM glucose adjusted to pH 7.2 with NaOH) and incubated with 2.5 μCi of [^3H]AA (specific activity of 91.8 Ci/mmol) for 24 h at 4° C. Rat aortae were subsequently washed in 50 mL of Kreb's buffer and then subjected to the vasoactivity assay. Initial background [^3H]AA release was determined following 30 min of equillibration for each aortic ring prior to treatment by removing 200 μL of Kreb's buffer (total volume of 7 mL each) from each bath, and measuring radioactivity (in cpm) after the addition of 1 mL of scintillant (EcoLume, ICN Inc., Calif.) using a liquid scintillation counter (1209 Rackbeta, WALLAC Inc., Md.). Subsequently, aortic rings were treated with sPLA2 alone or Aβ1-40 (1 μM) in the presence or absence of a MEK1/2 inhibitor (PD 98059) or a cPLA2 inhibitor (AACOCF3) for 5 min, or went untreated for the same length of time (control). Quantification of [^3H]AA release was then preformed as described above. All aortic rings were then subjected to a dose range of ET-1 (1, 2.5, and 5 nM), and radioactivity was measured 5 min after the first dose of ET-1 (1 nM), and 20 min after the second (2.5 nM) and third (5 nM) doses of ET-1. Radioactivity incorporated into each ring was determined by placing the aortic ring in 1 mL of scintillant and assaying as described above. Results are expressed as the means ±1 SE of the percentage of [^3H]AA incorporated for each aortic ring [([^3H]AA released—[^3H]AA initial background)/incorporated [^3H]AA].
# as §1
# N9 microglial cells = assay: Leukotriene B4 (LTB4) ELISA on microglial cell supernatants; format: cell-based, murine; conditions: 18 hours, FIG. 23
# Protocol: Leukotriene -B4 (LTB4) enzyme-linked immunoabsorbant assay (ELISA). Quantitative determination of LTB4 levels was made using a competitive binding ELISA (R&D Systems, Minneapolis, Minn.) designed to measure LTB4 in cell culture supernatants (as described in Paris et al., Exp Neurol 1999). A murine microglial cell line (N9) was provided by Dr. Paola Ricciardi-Castagnoli (Cellular Pharmacology Center, Milan, Italy) and were grown in RPMI medium supplemented with five percent fetal calf serum, 2 mM glutamine, 100 U/mL penicillin, […] streptomycin and 0.05 mM 2-mercaptoethanol. Microglial cells were seeded at 50,000 cells/well in 6-well plates (Falcon, France) and treated with Aβ1-40 (500 nM), drugs which oppose the PLA2/AA/5-LOX/COX-2 pathway, or untreated (control) and incubated for 18 hours. Cell supernatants were then collected and diluted 10-fold in assay buffer. 50 μL of diluted samples were then used in the assay, and each sample was assayed in duplicate. Manipulations were performed in accordance with the manufacturer's instruction. A spectramax 250 spectrophotometer (Molecular Devices, San Diego, USA) was used to measure absorbance at 405 nm and a standard curve was plotted using a 4-parameter model.
# as §1
# [4] = 1 μM with 1 μM Aβ1-40, 5 minutes prior to ET-1, FIGS. 7, 9, 10, 12
# [5] = 25 μM with 1 μM Aβ1-40, FIGS. 5, 16
# [6] = 5 μM with 1 μM Aβ1-40, FIGS. 11, 19
compound,measurement,setting,value
CC(C)c1ccc2c(c1)c(SC(C)(C)C)c(CC(C)(C)C(=O)O)n2Cc1ccc(Cl)cc1 [MK-886],effect on Aβ vasoactivity (Aβ1-40 enhancement of ET-1-induced vasoconstriction),[1]; [4],markedly inhibits Aβ vasoactivity
"Aβ1-42: soluble β-amyloid peptide with forty-two amino acids, obtained from QCB",magnitude of constriction induced by ET-1 in isolated mammalian vessels,"[2]; freshly solubilized, previously shown (Crawford et al., 1998)",increase the magnitude of constriction induced by ET-1
mastoparan,effect on ET-1-induced vasoconstriction,"[1]; 5 μM, 5 minutes prior to ET-1 dose range, FIG. 4",potentiate ET-1-induced vasoconstriction to a similar extent as Aβ
p-aminophenyl-α-D-mannopyranoside-bovine serum albumin [mannose-BSA],effect on ET-1-induced vasoconstriction,[1],vasoactive to a similar extent as Aβ
pertussis toxin,effect on Aβ vasoactivity,[1]; concentration not given,insensitive
"O=C1O/C(=C/Br)CCC1c1cccc2ccccc12 (centres unmarked) [HELSS, haloenol lactone suicide substrate]",effect on Aβ vasoactivity (Aβ1-40 enhancement of ET-1-induced vasoconstriction),[1]; [4],unable to affect Aβ-induced vasoactivity
CCCCC/C=C\C/C=C\C/C=C\C/C=C\CCCC(=O)C(F)(F)F [AACOCF3],effect on Aβ-induced [3H]AA release from aortic rings,"[3]; 1 μM with Aβ1-40 1 μM, FIG. 21",inhibited
CC[C@H](C)[C@H](NC(=O)CN)C(=O)NCC(=O)N[C@@H](C)C(=O)N[C@H](C(=O)N[C@@H](CC(C)C)C(=O)N[C@@H](CCCCN)C(=O)N[C@H](C(=O)N[C@@H](CC(C)C)C(=O)N[C@H](C(=O)N[C@H](C(=O)NCC(=O)N[C@@H](CC(C)C)C(=O)N1CCC[C@H]1C(=O)N[C@@H](C)C(=O)N[C@@H](CC(C)C)C(=O)N[C@H](C(=O)N[C@@H](CO)C(=O)N[C@@H](Cc1c[nH]c2ccccc12)C(=O)N[C@H](C(=O)N[C@@H](CCCCN)C(=O)N[C@@H](CCCNC(=N)N)C(=O)N[C@@H](CCCCN)C(=O)N[C@@H](CCCNC(=N)N)C(=O)N[C@@H](CCC(N)=O)C(=O)N[C@@H](CCC(N)=O)C(N)=O)[C@@H](C)CC)[C@@H](C)CC)[C@@H](C)O)[C@@H](C)O)C(C)C)C(C)C [Melittin],effect on ET-1-induced vasoconstriction,"[1]; 1 μM, 5 minutes prior to ET-1 dose range (1-5 nM), FIG. 3",potentiate ET-1-induced vasoconstriction to a similar extent as Aβ
CC(C)NCC(O)COc1cccc2ccccc12 (centres unmarked) [propanolol],effect on Aβ vasoactivity,[1]; concentration not given,unable to block Aβ vasoactivity
COc1cccc2c1cc([N+](=O)[O-])c1c(C(=O)O)cc3c(c12)OCO3 [aristolochic acid],effect on Aβ vasoactivity,[1]; high doses (25 μM),partial blockade of the vasoactive properties of Aβ
same,effect on Aβ vasoactivity,[1]; low doses (<10 μM),unable to affect Aβ vasoactivity
isotetrandrine,effect on Aβ vasoactivity (Aβ1-40 enhancement of ET-1-induced vasoconstriction),[1]; [5],partially blocked Aβ vasoactivity
"APP657-676: APP-derived peptide, a known stimulator of Go (EFRHDSGYEVHHQKLVFFAE; UniProt P05067 674-693, looked up, fragment)",effect on Aβ vasoactivity,[1]; concentration not given,not able to modulate ET-1-induced vasoconstriction or to affect Aβ-vasoactivity
same,effect on ET-1-induced vasoconstriction,[1]; concentration not given,not able to modulate ET-1-induced vasoconstriction
CN(C)CCCn1cc(C2=C(c3c[nH]c4ccccc34)C(=O)NC2=O)c2ccccc21 [bisindolylmaleimide I],effect on Aβ vasoactivity (Aβ1-40 enhancement of ET-1-induced vasoconstriction),"[1]; 1.5 μM with 1 μM Aβ1-40, FIG. 15",reduction in Aβ vasoactivity was merely additive
same,effect on ET-1-induced vasoconstriction,"[1]; 1.5 μM, 5 minutes prior to ET-1 dose range, FIG. 15",statistically interactive reduction in ET-1-induced vasoconstriction
Nc1ncnc2c1ncn2C1CCCO1 (centres unmarked) [SQ-22536],effect on Aβ vasoactivity,"[2]; adenylyl cyclase inhibitor, reference given",does not have any effect on the vasoactive properties of Aβ
"CCCCC/C=C\C/C=C\C/C=C\C/C=C\CCCC(=O)O [AA, Arachidonic acid]",effect on ET-1-induced vasoconstriction,[1]; concentration not given,can enhance ET-1-induced constriction
diacylglycerol [DAG],effect on ET-1-induced vasoconstriction,"[1]; 10 μM, 5 minutes prior to ET-1 dose range, FIG. 14",able to potentiate ET-1-induced vasoconstriction
COc1cccc(-c2cc(=O)c3ccccc3o2)c1N [PD 98059],effect on Aβ vasoactivity (Aβ1-40 enhancement of ET-1-induced vasoconstriction),[1]; [5],complete blockade
same,effect on Aβ1-42 vasoactivity,"[1]; 25 μM with 1 μM Aβ1-42, FIG. 17",complete blockade
same,effect on sPLA2 enhancement of ET-1-induced vasoconstriction,"[1]; 25 μM with 2.5 U/mL sPLA2, FIG. 18",completely inhibit sPLA2 enhancement of ET-1-induced vasoconstriction
same,effect on Aβ-induced microglial LTB4 release,N9 microglial cells; 25 μM with Aβ1-40 500 nM,complete blockade of Aβ-induced microglial LTB4 release
same,effect on Aβ-induced [3H]AA release from aortic rings,"[3]; 25 μM with Aβ1-40 1 μM, FIG. 22",blocked
"O=c1c(O)c(-c2ccc(O)c(O)c2)oc2cc(O)cc(O)c12 [Quercetin, quercetin]",effect on Aβ vasoactivity (Aβ1-40 enhancement of ET-1-induced vasoconstriction),"[1]; 10 μM with 1 μM Aβ1-40, FIGS. 8, 14",unable to block Aβ vasoactivity
O=C(NCCCCCCNC(=O)ON=C1CCCCC1)ON=C1CCCCC1 [RHC-80267],effect on Aβ vasoactivity (Aβ1-40 enhancement of ET-1-induced vasoconstriction),"[1]; 8 μM with 1 μM Aβ1-40, FIG. 13",not able to modulate ET-1-induced vasoconstriction or to affect Aβ enhancement of ET-1-induced vasoconstriction
same,effect on ET-1-induced vasoconstriction,"[1]; 8 μM, 5 minutes prior to ET-1 dose range, FIG. 13",not able to modulate ET-1-induced vasoconstriction
Oc1ccc(-c2nc(-c3ccncc3)c(-c3ccc(F)cc3)[nH]2)cc1 [SB 202190],effect on Aβ vasoactivity (Aβ1-40 enhancement of ET-1-induced vasoconstriction),[1]; [6],complete inhibition of Aβ vasoactivity
same,effect on Aβ-induced microglial LTB4 release,N9 microglial cells; 5 μM with Aβ1-40 500 nM,complete blockade of Aβ-induced microglial LTB4 release
CS(=O)(=O)Nc1ccc([N+](=O)[O-])cc1OC1CCCCC1 [NS-398],effect on Aβ vasoactivity (Aβ1-40 enhancement of ET-1-induced vasoconstriction),[1]; [6],able to block Aβ vasoactivity
same,effect on Aβ-induced microglial LTB4 release,N9 microglial cells; 50 μM with Aβ1-40 500 nM,complete blockade of LTB4 release
O[C@@H](CS)[C@@H](O)CS (racemic) [dithiothreithol],effect on sPLA2-induced vasoconstriction,[1]; concentration not given,inhibition of sPLA2-induced vasoconstriction
"CCCCCCCC/C=C\CCCCCCCCOCCOP(=O)([O-])OCC[N+](C)(C)C [oleylox., oleyloxyethylphosphocholine]",effect on Aβ vasoactivity (Aβ1-40 enhancement of ET-1-induced vasoconstriction),[1]; [4],completely blocks
same,effect on Aβ1-42 vasoactivity,[1]; 1 μM with Aβ1-42,completely blocks
same,effect on sPLA2-induced vasoconstriction,[1]; concentration not given,inhibition of sPLA2-induced vasoconstriction
